The assay addresses Envelope glycoprotein gp160 (Human immunodeficiency virus 1, UniProt Q6QLK5). Description: cell-free HIV fusion peptide-binding blockers – biochemical, uHTS, fluorescence dequenching, […] (AID 1986).

We go through 1 compound from ChEMBL document CHEMBL1201862, “PubChem BioAssay data set” (2004).

Active and inactive are the calls of the source. Rule as the data show it: actives have a measured IC50 and inactives only a lower limit.

Envelope glycoprotein gp160, sequence (Q6QLK5 whole entry, the tested form may be a part): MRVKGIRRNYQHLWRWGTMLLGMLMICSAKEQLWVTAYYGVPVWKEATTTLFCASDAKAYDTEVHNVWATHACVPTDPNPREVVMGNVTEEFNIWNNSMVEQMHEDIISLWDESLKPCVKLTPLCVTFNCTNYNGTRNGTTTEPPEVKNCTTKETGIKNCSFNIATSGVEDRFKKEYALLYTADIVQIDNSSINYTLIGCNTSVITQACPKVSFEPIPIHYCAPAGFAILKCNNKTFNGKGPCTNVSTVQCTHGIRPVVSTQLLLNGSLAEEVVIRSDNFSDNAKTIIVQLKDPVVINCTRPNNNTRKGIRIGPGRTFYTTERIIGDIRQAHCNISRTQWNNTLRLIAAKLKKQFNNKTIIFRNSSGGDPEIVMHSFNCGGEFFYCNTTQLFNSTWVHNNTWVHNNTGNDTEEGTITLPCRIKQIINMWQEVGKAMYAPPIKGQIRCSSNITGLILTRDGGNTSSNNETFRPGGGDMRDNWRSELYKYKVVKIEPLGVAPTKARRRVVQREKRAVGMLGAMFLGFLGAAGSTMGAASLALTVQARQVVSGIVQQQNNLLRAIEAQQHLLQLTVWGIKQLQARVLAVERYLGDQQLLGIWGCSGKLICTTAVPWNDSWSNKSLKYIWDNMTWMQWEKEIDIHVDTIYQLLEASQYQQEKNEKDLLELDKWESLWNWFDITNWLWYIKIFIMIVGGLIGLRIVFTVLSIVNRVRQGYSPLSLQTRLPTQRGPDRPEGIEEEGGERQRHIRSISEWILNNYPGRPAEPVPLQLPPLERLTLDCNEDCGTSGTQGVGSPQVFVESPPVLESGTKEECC

In general, IC50 refers to the concentration needed to halve the response being measured. As for `COc1cc(/C=C(\C#N)c2nc3ccccc3s2)cc([N+](=O)[O-])c1O`, the IC50 is 8.88 µM (active).
